Assay results: ChEMBL document CHEMBL1201862, “PubChem BioAssay data set” (2004)
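All cell lines were grown in 96-well plates and treated with compound for 48 hours. GI50 marks 50% less growth.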 Active and inactive are the calls of the source. No stated cut-off is given here; in the data, active = GI50 up to about 1.1 µM and inactive = higher.

What was measured:
Assay in all cases: DTP human tumour cell line panel, 48 h
SK-MEL-5 = test system: SK-MEL-5
CAKI-1 = test system: CAKI-1
U-251 = test system: U-251
OVCAR-4 = test system: OVCAR-4
BT-549 = test system: BT-549
HCT-116 = test system: HCT-116
OVCAR-8 = test system: OVCAR-8
SW-620 = test system: SW-620
A549 = test system: A549
EKVX = test system: EKVX
SN12C = test system: SN12C
SK-MEL-2 = test system: SK-MEL-2
M14 = test system: M14
T47D = test system: T47D
A498 = test system: A498
SNB-19 = test system: SNB-19
RXF 393 = test system: RXF 393
UACC-62 = test system: UACC-62
NCI-H226 = test system: NCI-H226
MDA-MB-231 = test system: MDA-MB-231
HCT-15 = test system: HCT-15
K562 = test system: K562
786-0 = test system: 786-0
NCI-H460 = test system: NCI-H460
IGROV-1 = test system: IGROV-1
OVCAR-5 = test system: OVCAR-5
CCRF-CEM = test system: CCRF-CEM
ACHN = test system: ACHN
COLO 205 = test system: COLO 205
HT-29 = test system: HT-29
NCI-H522 = test system: NCI-H522
MDA-MB-435 = test system: MDA-MB-435
NCI-H23 = test system: NCI-H23
UO-31 = test system: UO-31
TK-10 = test system: TK-10
PC-3 = test system: PC-3
SF-295 = test system: SF-295
HCC 2998 = test system: HCC 2998
SF-268 = test system: SF-268
SF-539 = test system: SF-539
SK-OV-3 = test system: SK-OV-3
MOLT-4 = test system: MOLT-4
LOX IMVI = test system: LOX IMVI
Hs-578T = test system: Hs-578T
NCI/ADR-RES = test system: NCI/ADR-RES
MDA-N = test system: MDA-N
DU-145 = test system: DU-145
UACC-257 = test system: UACC-257
SNB-75 = test system: SNB-75
MCF7 = test system: MCF7
SK-MEL-28 = test system: SK-MEL-28
RPMI-8226 = test system: RPMI-8226
OVCAR-3 = test system: OVCAR-3
HOP-92 = test system: HOP-92
HOP-62 = test system: HOP-62
Malme-3M = test system: Malme-3M
KM12 = test system: KM12
HL-60 = test system: HL-60

Compound: CC(C)CCNC(=O)c1ccc(CNC(=O)/C=C/c2csc(-c3ccccc3)n2)cc1
- GI50 (SK-MEL-5): 29.5 µM (inactive)
- GI50 (CAKI-1): 18.7 µM (inactive)
- GI50 (U-251): 29.4 µM (inactive)
- GI50 (OVCAR-4): 14.5 µM (inactive)
- GI50 (BT-549): 78.5 µM (inactive)
- GI50 (HCT-116): 46.7 µM (inactive)
- GI50 (OVCAR-8): 25.8 µM (inactive)
- GI50 (SW-620): > 100 µM (inactive)
- GI50 (A549): 40.1 µM (inactive)
- GI50 (EKVX): > 100 µM (inactive)
- GI50 (SN12C): 64.3 µM (inactive)
- GI50 (SK-MEL-2): > 100 µM (inactive)
- GI50 (M14): > 100 µM (inactive)
- GI50 (T47D): 33.2 µM (inactive)
- GI50 (A498): 19.9 µM (inactive)
- GI50 (SNB-19): 17.8 µM (inactive)
- GI50 (RXF 393): 17.3 µM (inactive)
- GI50 (UACC-62): > 100 µM (inactive)
- GI50 (NCI-H226): 33.3 µM (inactive)
- GI50 (MDA-MB-231): 33 µM (inactive)
- GI50 (HCT-15): 95.5 µM
- GI50 (K562): > 100 µM (inactive)
- GI50 (786-0): 32.7 µM (inactive)
- GI50 (NCI-H460): > 100 µM (inactive)
- GI50 (IGROV-1): 34.2 µM (inactive)
- GI50 (OVCAR-5): > 100 µM (inactive)
- GI50 (CCRF-CEM): > 100 µM (inactive)
- GI50 (ACHN): 52.7 µM (inactive)
- GI50 (COLO 205): > 100 µM (inactive)
- GI50 (HT-29): 31.1 µM (inactive)
- GI50 (NCI-H522): 41 µM (inactive)
- GI50 (MDA-MB-435): > 100 µM (inactive)
- GI50 (NCI-H23): > 100 µM (inactive)
- GI50 (UO-31): 19.6 µM (inactive)
- GI50 (TK-10): 53.2 µM (inactive)
- GI50 (PC-3): > 100 µM (inactive)
- GI50 (SF-295): 33.9 µM (inactive)
- GI50 (HCC 2998): > 100 µM (inactive)
- GI50 (SF-268): 35.4 µM (inactive)
- GI50 (SF-539): > 100 µM (inactive)
- GI50 (SK-OV-3): 40 µM (inactive)
- GI50 (MOLT-4): > 100 µM (inactive)
- GI50 (LOX IMVI): > 100 µM (inactive)
- GI50 (Hs-578T): 32.6 µM (inactive)
- GI50 (NCI/ADR-RES): 36.9 µM (inactive)
- GI50 (MDA-N): > 100 µM (inactive)
- GI50 (DU-145): > 100 µM (inactive)
- GI50 (UACC-257): 96.8 µM (inactive)
- GI50 (SNB-75): 14.4 µM (inactive)
- GI50 (MCF7): > 100 µM (inactive)
- GI50 (SK-MEL-28): 57.7 µM (inactive)
- GI50 (RPMI-8226): > 100 µM (inactive)
- GI50 (OVCAR-3): > 100 µM (inactive)
- GI50 (HOP-92): 27.7 µM (inactive)
- GI50 (HOP-62): 17.9 µM (inactive)
- GI50 (Malme-3M): 29.9 µM (inactive)
- GI50 (KM12): > 100 µM (inactive)

Compound: CC1=C(C)C(=O)C(C2=CC(=O)c3ccccc3C2=O)=C(C2=CC(=O)c3ccccc3C2=O)C1=O
- GI50 (SK-MEL-5): 1.4 µM (inactive)
- GI50 (CAKI-1): 2.95 µM (inactive)
- GI50 (U-251): 6.43 µM (inactive)
- GI50 (OVCAR-4): 5.04 µM (inactive)
- GI50 (BT-549): 18.7 µM (inactive)
- GI50 (HCT-116): 3.6 µM (inactive)
- GI50 (OVCAR-8): 3.64 µM (inactive)
- GI50 (SW-620): 2.79 µM (inactive)
- GI50 (A549): 19.4 µM (inactive)
- GI50 (EKVX): 19.3 µM (inactive)
- GI50 (SN12C): 2.61 µM (inactive)
- GI50 (SK-MEL-2): 5.9 µM (inactive)
- GI50 (M14): 8.49 µM (inactive)
- GI50 (T47D): 6.95 µM (inactive)
- GI50 (A498): 23.4 µM (inactive)
- GI50 (SNB-19): 4.54 µM (inactive)
- GI50 (RXF 393): 2.52 µM (inactive)
- GI50 (UACC-62): 7.19 µM (inactive)
- GI50 (NCI-H226): 13.1 µM (inactive)
- GI50 (MDA-MB-231): 4.52 µM (inactive)
- GI50 (HCT-15): 0.646 µM
- GI50 (786-0): 7.46 µM (inactive)
- GI50 (NCI-H460): 10.1 µM (inactive)
- GI50 (IGROV-1): 7.31 µM (inactive)
- GI50 (OVCAR-5): 24.3 µM (inactive)
- GI50 (ACHN): 3.27 µM (inactive)
- GI50 (COLO 205): 1.99 µM (inactive)
- GI50 (HT-29): 0.684 µM (active)
- GI50 (NCI-H522): 2.85 µM (inactive)
- GI50 (MDA-MB-435): 0.352 µM (active)
- GI50 (NCI-H23): 8.13 µM (inactive)
- GI50 (UO-31): 2.84 µM (inactive)
- GI50 (TK-10): 3.38 µM (inactive)
- GI50 (PC-3): 5.74 µM (inactive)
- GI50 (SF-295): 12.3 µM (inactive)
- GI50 (HCC 2998): 6.95 µM (inactive)
- GI50 (SF-268): 8.15 µM (inactive)
- GI50 (SF-539): 6.35 µM (inactive)
- GI50 (SK-OV-3): 20.2 µM (inactive)
- GI50 (LOX IMVI): 1.39 µM (inactive)
- GI50 (Hs-578T): 3.62 µM (inactive)
- GI50 (NCI/ADR-RES): 1.68 µM (inactive)
- GI50 (MDA-N): 0.82 µM (active)
- GI50 (DU-145): 3.21 µM (inactive)
- GI50 (HL-60): 0.234 µM (active)
- GI50 (UACC-257): 8.2 µM (inactive)
- GI50 (SNB-75): 13.2 µM (inactive)
- GI50 (MCF7): 1.88 µM (inactive)
- GI50 (SK-MEL-28): 7.62 µM (inactive)
- GI50 (HOP-62): 12.4 µM (inactive)
- GI50 (Malme-3M): 0.514 µM (active)
- GI50 (KM12): 10.4 µM (inactive)

Compound: O=c1[nH]nc(Cc2ccccc2)n1CCO
- GI50 (SK-MEL-5): > 100 µM (inactive)
- GI50 (CAKI-1): > 100 µM (inactive)
- GI50 (U-251): > 100 µM (inactive)
- GI50 (OVCAR-4): > 100 µM (inactive)
- GI50 (BT-549): > 100 µM (inactive)
- GI50 (HCT-116): > 100 µM (inactive)
- GI50 (OVCAR-8): > 100 µM (inactive)
- GI50 (SW-620): > 100 µM (inactive)
- GI50 (A549): > 100 µM (inactive)
- GI50 (EKVX): > 100 µM (inactive)
- GI50 (SN12C): > 100 µM (inactive)
- GI50 (SK-MEL-2): > 100 µM (inactive)
- GI50 (M14): > 100 µM (inactive)
- GI50 (T47D): > 100 µM (inactive)
- GI50 (A498): > 100 µM (inactive)
- GI50 (SNB-19): > 100 µM (inactive)
- GI50 (UACC-62): > 100 µM (inactive)
- GI50 (NCI-H226): > 100 µM (inactive)
- GI50 (MDA-MB-231): > 100 µM (inactive)
- GI50 (HCT-15): > 100 µM
- GI50 (K562): > 100 µM (inactive)
- GI50 (786-0): > 100 µM (inactive)
- GI50 (NCI-H460): > 100 µM (inactive)
- GI50 (IGROV-1): > 100 µM (inactive)
- GI50 (OVCAR-5): > 100 µM (inactive)
- GI50 (ACHN): > 100 µM (inactive)
- GI50 (COLO 205): > 100 µM (inactive)
- GI50 (HT-29): > 100 µM (inactive)
- GI50 (NCI-H522): > 100 µM (inactive)
- GI50 (MDA-MB-435): > 100 µM (inactive)
- GI50 (NCI-H23): > 100 µM (inactive)
- GI50 (UO-31): > 100 µM (inactive)
- GI50 (TK-10): > 100 µM (inactive)
- GI50 (PC-3): > 100 µM (inactive)
- GI50 (SF-295): > 100 µM (inactive)
- GI50 (HCC 2998): > 100 µM (inactive)
- GI50 (SF-268): > 100 µM (inactive)
- GI50 (SF-539): > 100 µM (inactive)
- GI50 (SK-OV-3): > 100 µM (inactive)
- GI50 (MOLT-4): > 100 µM (inactive)
- GI50 (LOX IMVI): > 100 µM (inactive)
- GI50 (Hs-578T): > 100 µM (inactive)
- GI50 (NCI/ADR-RES): > 100 µM (inactive)
- GI50 (MDA-N): > 100 µM (inactive)
- GI50 (DU-145): > 100 µM (inactive)
- GI50 (UACC-257): > 100 µM (inactive)
- GI50 (MCF7): > 100 µM (inactive)
- GI50 (SK-MEL-28): > 100 µM (inactive)
- GI50 (RPMI-8226): > 100 µM (inactive)
- GI50 (OVCAR-3): > 100 µM (inactive)
- GI50 (HOP-92): > 100 µM (inactive)
- GI50 (Malme-3M): > 100 µM (inactive)
- GI50 (KM12): > 100 µM (inactive)
